System: rat mammary tumor line (MAT-B-III)
Test: Optical (NIR fluorescence) imaging of tumor to background ratio in tumor rat model
Format: in vivo
Text: For optical imaging the signal to ratio background ratio is defined as the mean fluorescence intensity (target tissue)/mean fluorescence intensity (background tissue). For optical imaging methods, target to background ratio may be determined using computer-controlled (LabVIEW) camera acquisition via custom LabVIEW software. […] A region of interest (ROI) maybe defined in both the tumor area and the background tissue area. Fluorescence emission from the ROI may be received at a near-infrared sensitive 12-bit CCD camera, in which the intensities range from 0-4095.
Optical Imaging Using Tumor Rat Model. Step 1. Introduction of Tumor Cells into Animal. Intra-mammary gland tumor injection is a survival surgery. All procedures are performed with the animal lying on a circulating water pad. With the anesthetized rat lying on its back, the sterile prepped ventral abdominal skin is picked up, just above the left groin (inguinal) area and a small incision is made with scissors being careful to avoid the underlying peritonium. The fourth mammary gland is easily visible, lying on the dorsal surface of the skin directly on top of a junction point for the mammary artery and vein. Using a 1 cc syringe, 10^6 cells (0.1 ml) were injected directly into the gland. Only one mammary gland per rat was inoculated with tumor cells. The skin wound was closed with surgical staples. Surgical staples were removed 3 days after insertion.
Animals are treated with test agents and imaged 7 days after tumor injections. Test agents are administered via a tail vein injection (100-500 μl). For MR studies, animals received a pre-injection scan, followed by post-injection scans. Images were obtained post injection at approximately 4-minute intervals following injection for up to 30-40 minutes. In some experiments images were again taken at 24 hours after injection. For optical studies, animals were imaged at 0.5, 6, 12, and 24 hours.
Step 2. Agent Administration. After approximately 8 days following tumor cell implantation (the tumor size reached about 5-10 mm diameter) one of several imaging agents listed in Table 2 was administered to the animal at the corresponding dosage indicated in Table 2.
Step 3. Surgical Resection. Surgical tumor resection is a non-survival surgery. Tumors were resecteded when they reached a diameter in the range of 5-10 mm in diameter. With the anesthetized rat lying on its back, the ventral abdominal skin is picked up, just above the left groin (inguinal) area and a small incision is made (at or near the site of tumor inoculation) with scissors being careful to avoid the underlying peritonium. The tumor, growing in the mammary gland, stays contained in this tissue and is easily removed. The tumor was held with a pair of forceps and using a scalpel is removed from the surrounding connective tissue. After the tumor was removed, a midline incision, through the peritoneum was made, other organs were observed and imaged, and sampled for histological and biodistribution studies.
Step 4. Data Capture. Images were captured for later evaluation of the relative intensity of fluorescence in the kidney, liver, bladder, muscle etc. Samples of blood and urine were acquired and stored, the animal was sacrificed, and the clearance organs were removed from animal and frozen in a slurry of dry ice and 2-methylbutane. The tissues were then placed in an embedding medium (OCT, […]) and frozen at −80° C. Blood and urine samples were analyzed for concentration of agent at this time point, and for evidence of metabolism of the administered agent.
Statistical Analysis of Optical Imagine Results. To reduce the large number of variables in this problem and one polymer length (˜400 residues) was chosen at a high percentage conjugation (˜96%) for the MR imaging moiety (Gd-DTPA) with one dye per molecule. In one set of experiments, a tetra-sulfonated dye (Cy5.5-NHS-Ester) was then compared with a bis-sulfonated dye (Cy5-NHS-Ester). […]

In the case of `CC[N+]1=C(C=CC=CC=C2N(CCCCCC(=O)O)c3ccc(S(=O)(=O)[O-])cc3C2(C)C)C(C)(C)c2cc(S(=O)(=O)[O-])ccc21.[Na+]` [Cy5 free dye, 2-[5-[1-(5-carboxypentyl)-1,3-dihydro-3,3-dimethyl-5-sulfo-2H-indol-2-ylidene]-penta-1,3-dienyl]-3,3-dimethyl-5-sulfo-1-ethyl-3H-indolium, inner salt, sodium salt], the “Average of Tumor/Bkgnd” value (dose printed as 'blank', 6 hours post injection) is reported as 1.17, the “Average of Tumor/Bkgnd” value (dose printed as 'blank', 12 hours post injection) is reported as 1.18 and the “Average of Tumor/Bkgnd” value (dose printed as 'blank', 24 hours post injection) is reported as 1.17. For the same compound, the “Average of Tumor/Bkgnd” value (dose printed as 'blank', Total over time points) was 1.17, the “Average of Tumor/Bkgnd” value (vector subtotal over all doses, 6 hours post injection) was 1.17 and the “Average of Tumor/Bkgnd” value (vector subtotal over all doses, 12 hours post injection) was 1.18. The “Average of Tumor/Bkgnd” value (vector subtotal over all doses, 24 hours post injection) was 1.17 and the “Average of Tumor/Bkgnd” value (vector subtotal over all doses, Total over time points) was 1.17.

— patent publication US20070148094A1, “Polymeric imaging agents and medical imaging methods” (priority 2005, published 2007)
